The target in test [1] is RAC-beta serine/threonine-protein kinase (Homo sapiens) (UniProt P31751). In words: Selectivity interaction (Upstate Kinase Profiler service (Millipore)) EUB0000056c AKT2. The note with it: at 1 µM.
In test [2] the test system is ALK tyrosine kinase receptor (Homo sapiens), Q9UM73 [F1174L]. Nature of the test: (§1) Selectivity interaction (ProQinase) EUB0000171b ALK.
Test [3] has as its system ALK tyrosine kinase receptor (Homo sapiens), Q9UM73 [R1275Q]. Described as §1.
The test system of test [4] is ALK tyrosine kinase receptor (Homo sapiens), Q9UM73 [C1156Y]. The test is described as §1.
Test [5] deals with ALK tyrosine kinase receptor (Homo sapiens, UniProt Q9UM73). The description is as §1.
Test [6] relates to ALK tyrosine kinase receptor (Homo sapiens), Q9UM73 [F1174S]. The test is described as §1.
Test [7] concerns ALK tyrosine kinase receptor (Homo sapiens), Q9UM73 [L1196M]. The test is described as §1.
In test [8] the target is T1, Serine/threonine-protein kinase Nek10 (Homo sapiens) (UniProt Q6ZWH5).
T1 sequence (whole entry): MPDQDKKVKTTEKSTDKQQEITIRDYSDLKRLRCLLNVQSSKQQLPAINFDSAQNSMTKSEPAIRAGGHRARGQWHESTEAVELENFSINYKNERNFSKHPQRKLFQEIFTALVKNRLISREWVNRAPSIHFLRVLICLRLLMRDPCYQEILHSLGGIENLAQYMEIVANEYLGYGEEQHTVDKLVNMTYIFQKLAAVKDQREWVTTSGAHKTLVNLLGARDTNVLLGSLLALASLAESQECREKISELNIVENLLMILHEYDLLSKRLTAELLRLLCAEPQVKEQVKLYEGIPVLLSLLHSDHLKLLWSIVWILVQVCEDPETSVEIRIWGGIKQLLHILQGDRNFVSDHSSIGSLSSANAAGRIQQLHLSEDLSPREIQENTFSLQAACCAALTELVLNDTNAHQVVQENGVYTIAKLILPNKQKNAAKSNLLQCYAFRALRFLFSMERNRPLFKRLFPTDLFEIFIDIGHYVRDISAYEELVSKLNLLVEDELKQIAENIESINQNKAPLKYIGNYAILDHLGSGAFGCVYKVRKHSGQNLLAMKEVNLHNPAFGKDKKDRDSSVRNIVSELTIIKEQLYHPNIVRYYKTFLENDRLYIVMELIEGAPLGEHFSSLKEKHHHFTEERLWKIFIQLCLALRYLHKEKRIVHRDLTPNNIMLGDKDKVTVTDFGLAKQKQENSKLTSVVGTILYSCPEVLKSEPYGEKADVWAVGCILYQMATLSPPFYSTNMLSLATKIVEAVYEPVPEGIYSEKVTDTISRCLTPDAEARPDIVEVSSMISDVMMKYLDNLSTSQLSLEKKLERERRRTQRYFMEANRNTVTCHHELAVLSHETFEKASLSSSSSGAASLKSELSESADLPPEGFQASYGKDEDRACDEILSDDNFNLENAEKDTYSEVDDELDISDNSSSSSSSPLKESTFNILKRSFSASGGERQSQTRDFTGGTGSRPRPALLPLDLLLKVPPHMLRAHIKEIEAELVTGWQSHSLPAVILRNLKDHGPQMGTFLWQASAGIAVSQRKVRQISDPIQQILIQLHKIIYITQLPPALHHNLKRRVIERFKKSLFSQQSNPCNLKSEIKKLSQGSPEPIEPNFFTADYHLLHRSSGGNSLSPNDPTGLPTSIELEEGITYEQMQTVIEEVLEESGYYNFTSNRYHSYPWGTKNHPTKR
Nature of the test: Selectivity interaction (KinomeScan (DiscoverX)) EUB0001079a NEK10. The note with it: at 1 µM.

The target in test [9] is T2, Muscle, skeletal receptor tyrosine-protein kinase (Homo sapiens) (UniProt O15146).
T2 sequence (whole entry): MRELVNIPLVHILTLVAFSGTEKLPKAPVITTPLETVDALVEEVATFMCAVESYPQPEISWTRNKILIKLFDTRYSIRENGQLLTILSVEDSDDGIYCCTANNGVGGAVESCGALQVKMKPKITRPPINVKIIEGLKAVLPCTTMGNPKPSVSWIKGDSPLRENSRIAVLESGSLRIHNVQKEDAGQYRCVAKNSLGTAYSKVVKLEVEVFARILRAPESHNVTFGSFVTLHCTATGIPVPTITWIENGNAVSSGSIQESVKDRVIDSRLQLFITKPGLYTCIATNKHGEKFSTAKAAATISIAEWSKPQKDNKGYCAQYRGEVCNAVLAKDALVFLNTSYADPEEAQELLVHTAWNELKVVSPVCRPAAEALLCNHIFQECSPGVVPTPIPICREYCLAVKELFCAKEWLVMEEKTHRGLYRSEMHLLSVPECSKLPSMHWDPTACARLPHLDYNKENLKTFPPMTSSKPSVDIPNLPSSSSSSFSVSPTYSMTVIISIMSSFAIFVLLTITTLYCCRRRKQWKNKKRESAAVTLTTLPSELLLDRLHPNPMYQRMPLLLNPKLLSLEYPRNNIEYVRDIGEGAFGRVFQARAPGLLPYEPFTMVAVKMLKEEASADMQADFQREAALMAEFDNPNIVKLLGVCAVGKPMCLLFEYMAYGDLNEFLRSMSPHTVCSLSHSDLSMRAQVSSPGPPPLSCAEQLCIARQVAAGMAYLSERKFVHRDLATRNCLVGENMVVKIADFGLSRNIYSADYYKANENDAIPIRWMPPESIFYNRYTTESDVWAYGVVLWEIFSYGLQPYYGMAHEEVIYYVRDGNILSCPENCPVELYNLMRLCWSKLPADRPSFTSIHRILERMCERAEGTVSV
Nature of the test: Selectivity interaction (Kinase panel (Z-LYTE Assay)) EUB0001632a MUSK. The following applies: at 10 µM.

Chain of ALK tyrosine kinase receptor (Homo sapiens), Q9UM73 [F1174L] (Q9UM73 whole entry F1174L): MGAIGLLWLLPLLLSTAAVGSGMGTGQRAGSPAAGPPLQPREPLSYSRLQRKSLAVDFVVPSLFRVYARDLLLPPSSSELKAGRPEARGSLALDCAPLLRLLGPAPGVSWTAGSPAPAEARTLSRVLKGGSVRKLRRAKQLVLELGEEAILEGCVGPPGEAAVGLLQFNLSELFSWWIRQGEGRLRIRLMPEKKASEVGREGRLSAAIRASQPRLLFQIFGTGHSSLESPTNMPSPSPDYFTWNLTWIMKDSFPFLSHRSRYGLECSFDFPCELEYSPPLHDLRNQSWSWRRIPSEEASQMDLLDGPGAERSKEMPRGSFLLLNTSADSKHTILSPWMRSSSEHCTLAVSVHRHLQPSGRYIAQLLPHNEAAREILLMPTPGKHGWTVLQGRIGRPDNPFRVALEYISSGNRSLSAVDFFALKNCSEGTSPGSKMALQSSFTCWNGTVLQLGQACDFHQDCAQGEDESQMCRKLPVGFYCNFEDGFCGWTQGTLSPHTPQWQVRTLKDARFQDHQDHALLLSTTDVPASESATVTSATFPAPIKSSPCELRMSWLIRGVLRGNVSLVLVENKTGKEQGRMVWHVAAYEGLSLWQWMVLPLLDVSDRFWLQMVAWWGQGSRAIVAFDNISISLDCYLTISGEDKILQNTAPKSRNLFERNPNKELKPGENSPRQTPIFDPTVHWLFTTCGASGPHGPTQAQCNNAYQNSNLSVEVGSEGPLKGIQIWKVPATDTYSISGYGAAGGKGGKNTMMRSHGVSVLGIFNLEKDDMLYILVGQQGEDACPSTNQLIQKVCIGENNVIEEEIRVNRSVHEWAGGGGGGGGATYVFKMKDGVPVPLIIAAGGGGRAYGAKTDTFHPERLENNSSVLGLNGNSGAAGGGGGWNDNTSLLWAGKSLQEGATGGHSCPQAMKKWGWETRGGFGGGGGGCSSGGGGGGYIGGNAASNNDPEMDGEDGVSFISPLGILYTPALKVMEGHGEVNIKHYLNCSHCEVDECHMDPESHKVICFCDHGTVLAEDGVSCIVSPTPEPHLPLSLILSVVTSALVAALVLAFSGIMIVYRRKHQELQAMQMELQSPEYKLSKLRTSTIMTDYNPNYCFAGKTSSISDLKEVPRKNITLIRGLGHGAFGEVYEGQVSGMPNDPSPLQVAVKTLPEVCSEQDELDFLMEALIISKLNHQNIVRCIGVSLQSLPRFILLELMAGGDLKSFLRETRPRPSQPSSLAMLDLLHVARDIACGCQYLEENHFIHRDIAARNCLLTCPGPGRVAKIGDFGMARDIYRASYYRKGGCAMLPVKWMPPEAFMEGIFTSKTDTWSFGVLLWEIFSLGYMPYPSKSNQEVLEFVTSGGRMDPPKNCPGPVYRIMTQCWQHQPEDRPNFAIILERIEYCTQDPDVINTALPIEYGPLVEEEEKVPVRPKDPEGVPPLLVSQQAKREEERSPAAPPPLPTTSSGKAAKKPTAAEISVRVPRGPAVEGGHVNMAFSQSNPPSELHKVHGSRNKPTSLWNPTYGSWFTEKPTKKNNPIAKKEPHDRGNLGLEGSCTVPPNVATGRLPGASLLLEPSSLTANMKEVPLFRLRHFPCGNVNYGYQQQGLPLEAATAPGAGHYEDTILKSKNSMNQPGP
Chain of ALK tyrosine kinase receptor (Homo sapiens), Q9UM73 [R1275Q] (Q9UM73 whole entry R1275Q): as the sequence (Q9UM73 whole entry F1174L) above, with L1174F, R1275Q counted along it
Chain of ALK tyrosine kinase receptor (Homo sapiens), Q9UM73 [C1156Y] (Q9UM73 whole entry C1156Y, looked up): as the sequence (Q9UM73 whole entry F1174L) above, with C1156Y, L1174F counted along it
Chain of ALK tyrosine kinase receptor (Homo sapiens), Q9UM73 [F1174S] (Q9UM73 whole entry F1174S): as the sequence (Q9UM73 whole entry F1174L) above, with L1174S counted along it
Chain of ALK tyrosine kinase receptor (Q9UM73 19-1620 limits assumed): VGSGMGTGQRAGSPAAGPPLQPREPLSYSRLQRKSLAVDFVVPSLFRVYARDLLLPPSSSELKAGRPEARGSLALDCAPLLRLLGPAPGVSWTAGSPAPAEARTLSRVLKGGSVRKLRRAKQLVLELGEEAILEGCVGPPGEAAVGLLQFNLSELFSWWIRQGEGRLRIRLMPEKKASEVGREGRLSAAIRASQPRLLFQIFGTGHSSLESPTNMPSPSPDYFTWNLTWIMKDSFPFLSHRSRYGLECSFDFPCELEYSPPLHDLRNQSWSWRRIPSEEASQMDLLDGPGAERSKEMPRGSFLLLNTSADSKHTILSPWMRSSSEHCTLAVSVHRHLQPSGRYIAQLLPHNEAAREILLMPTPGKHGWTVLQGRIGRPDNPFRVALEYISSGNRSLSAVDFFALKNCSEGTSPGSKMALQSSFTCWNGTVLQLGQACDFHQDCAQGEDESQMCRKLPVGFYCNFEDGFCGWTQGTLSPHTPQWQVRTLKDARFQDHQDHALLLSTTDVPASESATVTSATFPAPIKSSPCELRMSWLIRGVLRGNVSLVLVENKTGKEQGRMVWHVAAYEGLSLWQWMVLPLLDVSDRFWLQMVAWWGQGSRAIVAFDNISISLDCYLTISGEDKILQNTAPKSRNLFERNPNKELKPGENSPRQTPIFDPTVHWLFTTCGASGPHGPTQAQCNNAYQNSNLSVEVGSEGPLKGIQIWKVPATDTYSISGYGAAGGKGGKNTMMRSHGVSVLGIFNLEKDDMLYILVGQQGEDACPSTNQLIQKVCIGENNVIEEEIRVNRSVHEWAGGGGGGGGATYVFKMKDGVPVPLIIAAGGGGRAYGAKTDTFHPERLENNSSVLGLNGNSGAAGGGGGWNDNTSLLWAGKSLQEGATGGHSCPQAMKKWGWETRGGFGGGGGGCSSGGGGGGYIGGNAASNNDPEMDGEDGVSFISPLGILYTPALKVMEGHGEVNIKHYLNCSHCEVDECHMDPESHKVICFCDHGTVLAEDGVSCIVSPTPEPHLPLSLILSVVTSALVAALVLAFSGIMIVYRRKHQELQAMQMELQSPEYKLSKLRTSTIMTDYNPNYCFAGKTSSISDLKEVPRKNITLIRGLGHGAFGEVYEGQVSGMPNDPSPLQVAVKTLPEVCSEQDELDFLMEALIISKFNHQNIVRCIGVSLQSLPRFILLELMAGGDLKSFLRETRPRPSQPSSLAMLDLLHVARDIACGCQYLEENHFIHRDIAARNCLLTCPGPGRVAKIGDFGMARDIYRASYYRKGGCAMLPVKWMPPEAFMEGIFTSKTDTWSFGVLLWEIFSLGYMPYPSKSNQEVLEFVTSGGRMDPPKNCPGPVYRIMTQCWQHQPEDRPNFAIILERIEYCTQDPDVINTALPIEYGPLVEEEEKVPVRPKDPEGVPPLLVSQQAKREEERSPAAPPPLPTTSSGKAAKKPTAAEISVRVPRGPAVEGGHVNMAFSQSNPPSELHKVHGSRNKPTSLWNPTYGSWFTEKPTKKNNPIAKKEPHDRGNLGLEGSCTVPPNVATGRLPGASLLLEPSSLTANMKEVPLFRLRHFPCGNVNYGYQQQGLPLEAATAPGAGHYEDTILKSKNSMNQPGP
Chain of ALK tyrosine kinase receptor (Homo sapiens), Q9UM73 [L1196M] (Q9UM73 whole entry L1196M, looked up): as the sequence (Q9UM73 whole entry F1174L) above, with L1174F, L1196M counted along it
Chain of RAC-beta serine/threonine-protein kinase (Homo sapiens) (P31751 whole entry): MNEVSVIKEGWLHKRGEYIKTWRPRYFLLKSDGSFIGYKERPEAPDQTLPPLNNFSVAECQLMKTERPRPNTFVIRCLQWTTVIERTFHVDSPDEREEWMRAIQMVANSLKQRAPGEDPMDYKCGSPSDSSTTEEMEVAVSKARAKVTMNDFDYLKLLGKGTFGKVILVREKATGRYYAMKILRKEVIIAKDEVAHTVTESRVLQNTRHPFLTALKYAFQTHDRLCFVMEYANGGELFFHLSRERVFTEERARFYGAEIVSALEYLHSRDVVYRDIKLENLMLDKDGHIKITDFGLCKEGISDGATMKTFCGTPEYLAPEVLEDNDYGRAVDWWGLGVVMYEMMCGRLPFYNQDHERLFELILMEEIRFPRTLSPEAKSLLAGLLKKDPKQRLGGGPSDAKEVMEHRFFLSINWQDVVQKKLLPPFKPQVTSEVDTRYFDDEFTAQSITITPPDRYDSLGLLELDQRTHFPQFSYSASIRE

As for `Cc1ccc(-c2ccc3c(ccc4sc5c(c43)NC[C@@H](C)NC5=O)n2)cn1`, the % of inhibition in test [1] is -9%.

For `C=CC(=O)Nc1cccc(C(=O)Nc2ccc(Nc3cc(-c4[nH]c(SC)nc4C)ccn3)cc2)c1`, the % of control was 84% in test [2] (at 1 µM); 74% in test [2] (at 5 µM); 85% in [3] (at 1 µM); 73% in [3] (at 5 µM); 86% in [4] (at 1 µM); 69% in test [4] (at 5 µM). In addition, the % of control in test [5] (at 1 µM) was determined as 98%; in test [5] (at 5 µM), 72%; in test [6] (at 1 µM), 92%; in test [6] (at 5 µM) it was 72%; in test [7] (at 1 µM), 72%; in [7] (at 5 µM), 55%.

In [8], `Nc1cnc(N2CCc3cc(S(=O)(=O)Nc4c(F)cc(Cl)cc4F)cc(N4CCCC4=O)c32)nc1` [TP-020n] showed a % of control of 100%.

In test [9], `Cn1cc(-n2cnc3c(NCc4nc5cc(Cl)c(Cl)cc5[nH]4)nc(N4CCOCC4)nc32)cn1` showed a % of control of 12.7%.

For the origin of these results see ChEMBL document CHEMBL5465560, “Selectivity Literature for EUbOPEN Chemogenomic Library” (2024).
